5 compounds from patent US9096591B2, “Tetracyclic compounds” (Medivation Technologies, Inc., priority 2007, dated 2015) can be followed below.

Experiment [1] concerns the target T1, human recombinant histamine H2 receptor (Homo sapiens, UniProt P25021).
T1 construct: expressed in transfected cells; host or cells: CHO-K1 cells
The experiment in a line: Histamine H2 radioligand binding ([125I]Aminopotentidine). The following applies: compounds screened at 1 μM; read-out: Inhibition of ligand binding, Hist. H2 (percent inhibition of specific binding). The procedure, abridged: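 Test compounds were assessed for their ability to displace radioligand from the human recombinant histamine H2 receptor. Non-specific binding was determined in the presence of 3 μM Tiotidine, and results were expressed as percent inhibition of specific binding, with 1% DMSO serving as the vehicle.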

Experiment [2] has as its target T2, human recombinant adrenergic α2A receptor (Homo sapiens, UniProt P08913).
T2 construct: expressed in transfected cells; host or cells: insect Sf9 cells
T2 sequence (P08913 1-465): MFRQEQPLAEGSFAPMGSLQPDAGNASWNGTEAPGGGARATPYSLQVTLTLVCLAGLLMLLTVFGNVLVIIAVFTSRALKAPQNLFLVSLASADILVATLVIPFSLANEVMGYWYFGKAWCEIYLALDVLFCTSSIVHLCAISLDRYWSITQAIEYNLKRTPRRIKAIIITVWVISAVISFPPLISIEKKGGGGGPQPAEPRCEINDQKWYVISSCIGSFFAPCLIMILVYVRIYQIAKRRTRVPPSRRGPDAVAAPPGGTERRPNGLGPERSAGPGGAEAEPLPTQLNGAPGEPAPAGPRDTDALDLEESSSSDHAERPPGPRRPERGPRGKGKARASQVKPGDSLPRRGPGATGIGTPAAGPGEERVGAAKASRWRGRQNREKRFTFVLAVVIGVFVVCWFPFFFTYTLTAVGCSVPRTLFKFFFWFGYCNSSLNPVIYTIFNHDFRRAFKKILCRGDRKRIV
The experiment in a line: Adrenergic α2A radioligand binding ([3H]MK-912). The following applies: compounds screened at 1 μM; read-out: Inhibition of ligand binding, Adren. alpha2A (percent inhibition of specific binding). The procedure, abridged: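 Membranes from Sf9 cells expressing the receptor were incubated with 1 nM [3H]MK-912 for 60 minutes at 25° C in 50 mM Tris-HCl pH 7.4, 12.5 mM MgCl2, 2 mM EDTA. 10 μM WB-4101 defined non-specific binding. Values are percent inhibition of specific bound radioactivity after filtration.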

For experiment [3], the target named is T3, human recombinant dopamine D2L receptor (Homo sapiens, UniProt P14416).
T3 construct: expressed in transfected cells; host or cells: CHO cells
T3 sequence (P14416 whole entry): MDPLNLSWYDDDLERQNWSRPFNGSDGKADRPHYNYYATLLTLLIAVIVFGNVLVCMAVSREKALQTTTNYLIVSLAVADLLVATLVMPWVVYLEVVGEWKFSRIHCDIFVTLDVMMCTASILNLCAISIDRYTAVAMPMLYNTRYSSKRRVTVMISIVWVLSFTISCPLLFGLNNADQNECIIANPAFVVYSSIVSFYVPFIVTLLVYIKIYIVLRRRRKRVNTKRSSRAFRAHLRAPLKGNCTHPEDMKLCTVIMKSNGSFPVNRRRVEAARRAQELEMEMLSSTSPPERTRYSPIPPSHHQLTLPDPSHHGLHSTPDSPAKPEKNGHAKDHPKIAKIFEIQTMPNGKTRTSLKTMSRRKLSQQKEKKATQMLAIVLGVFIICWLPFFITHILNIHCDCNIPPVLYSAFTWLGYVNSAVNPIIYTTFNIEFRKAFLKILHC
The experiment in a line: Dopamine D2L radioligand binding ([3H]Spiperone). The following applies: compounds screened at 1 μM; read-out: Inhibition of ligand binding, Dop. D2L (percent inhibition of specific binding). The method, then: Non-specific binding was estimated in the presence of 10 μM Haloperidol. Receptor proteins were filtered and washed, the filters were then counted to determine [^3H]Spiperone specifically bound. […] Biochemical assay results are presented as the percent inhibition of specific binding in Table 6.

In experiment [4] the target is T4, human recombinant serotonin (5-Hydroxytryptamine) 5-HT2C receptor (Homo sapiens, UniProt P28335).
T4 construct: expressed in transfected cells; host or cells: CHO-K1 cells
T4 sequence (P28335 33-458): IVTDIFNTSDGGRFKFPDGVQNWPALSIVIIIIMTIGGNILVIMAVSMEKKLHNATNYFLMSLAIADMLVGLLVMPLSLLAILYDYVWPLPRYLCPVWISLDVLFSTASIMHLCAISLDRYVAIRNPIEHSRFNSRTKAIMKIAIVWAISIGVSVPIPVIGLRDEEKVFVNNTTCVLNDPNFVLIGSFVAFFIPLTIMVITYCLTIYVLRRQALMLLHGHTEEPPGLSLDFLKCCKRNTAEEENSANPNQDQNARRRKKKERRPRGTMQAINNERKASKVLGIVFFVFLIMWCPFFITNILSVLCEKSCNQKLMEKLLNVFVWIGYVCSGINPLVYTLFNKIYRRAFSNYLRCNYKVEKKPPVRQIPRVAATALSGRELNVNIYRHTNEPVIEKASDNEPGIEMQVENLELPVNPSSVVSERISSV
The experiment in a line: Serotonin 5-HT2C radioligand binding ([3H]Mesulergine). Conditions: compounds screened at 1 μM; read-out: Inhibition of ligand binding, Ser. 5-HT2C (percent inhibition of specific binding). The method, then:
Compounds of the invention were incubated with 1 nM [^3H]Mesulergine for 60 minutes at 25° C. Non-specific binding was estimated in the presence of 1 μM Mianserin. Receptor proteins were filtered and washed, the filters were then counted to determine [^3H]Mesulergine specifically bound. […] Biochemical assay results are presented as the percent inhibition of specific binding in Table 6.

The target of experiment [5] is T5, human recombinant serotonin (5-Hydroxytryptamine) 5-HT2A receptor (Homo sapiens, UniProt P28223).
T5 construct: expressed in transfected cells; host or cells: CHO-K1 cells
T5 sequence (P28223 whole entry): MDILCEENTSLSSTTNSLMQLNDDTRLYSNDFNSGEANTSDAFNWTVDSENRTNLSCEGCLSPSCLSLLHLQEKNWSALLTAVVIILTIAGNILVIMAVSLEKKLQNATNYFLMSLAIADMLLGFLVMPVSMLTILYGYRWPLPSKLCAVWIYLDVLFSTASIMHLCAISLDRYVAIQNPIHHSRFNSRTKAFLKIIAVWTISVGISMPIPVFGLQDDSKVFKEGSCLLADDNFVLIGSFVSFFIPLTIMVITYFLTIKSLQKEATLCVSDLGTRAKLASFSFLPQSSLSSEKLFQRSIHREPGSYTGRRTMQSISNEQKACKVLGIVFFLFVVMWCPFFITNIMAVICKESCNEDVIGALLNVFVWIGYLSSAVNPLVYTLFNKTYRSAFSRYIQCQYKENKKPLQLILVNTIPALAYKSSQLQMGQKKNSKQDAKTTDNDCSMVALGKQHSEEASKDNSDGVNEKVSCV
The experiment is described as follows: Serotonin 5-HT2A radioligand binding ([3H]Ketanserin). The following applies: read-out: Inhibition of ligand binding, Ser. 5-HT2A (percent inhibition of specific binding). The method, then: Compounds of the invention were incubated with 0.5 nM [^3H]Ketanserin for 60 minutes at 25° C. Non-specific binding was estimated in the presence of 1 μM Mianserin. Receptor proteins were filtered and washed, the filters were then counted to determine [^3H]Ketanserin specifically bound. […] Biochemical assay results are presented as the percent inhibition of specific binding in Table 6.

Experiment [6] has as its target T6, human recombinant serotonin (5-Hydroxytryptamine) 5-HT6 receptor (Homo sapiens, UniProt P50406).
T6 construct: expressed in transfected cells; host or cells: human HeLa cells
The experiment in a line: Serotonin 5-HT6 radioligand binding ([3H]LSD). Conditions: compounds screened at 1 μM; read-out: Inhibition of ligand binding, Ser. 5-HT6 (percent inhibition of specific binding). The source says:
Receptor proteins were filtered and washed, the filters were then counted to determine [3H]LSD specifically bound. […] Biochemical assay results are presented as the percent inhibition of specific binding in Table 6.

In experiment [7] the target is T7, Serotonin (5-Hydroxytryptamine) 5-HT7 (Homo sapiens, UniProt P34969).
T7 construct: expressed in transfected cells; host or cells: CHO cells
T7 sequence (P34969 whole entry): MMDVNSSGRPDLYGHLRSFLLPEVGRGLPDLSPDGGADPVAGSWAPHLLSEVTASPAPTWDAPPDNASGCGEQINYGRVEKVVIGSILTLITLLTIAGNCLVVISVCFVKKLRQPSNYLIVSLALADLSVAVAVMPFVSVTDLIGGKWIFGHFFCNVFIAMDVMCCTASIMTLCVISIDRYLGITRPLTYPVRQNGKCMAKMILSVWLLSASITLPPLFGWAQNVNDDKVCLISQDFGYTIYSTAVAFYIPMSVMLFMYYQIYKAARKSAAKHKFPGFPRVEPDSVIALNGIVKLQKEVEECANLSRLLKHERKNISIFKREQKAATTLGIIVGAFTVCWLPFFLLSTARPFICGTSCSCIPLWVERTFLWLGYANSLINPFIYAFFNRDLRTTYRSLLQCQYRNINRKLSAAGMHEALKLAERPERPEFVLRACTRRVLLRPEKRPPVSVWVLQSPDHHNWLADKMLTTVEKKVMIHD
The experiment is described as follows: Serotonin 5-HT7 radioligand binding ([3H]LSD). The following applies: compounds screened at 1 μM; read-out: Inhibition of ligand binding, Ser. 5-HT7 (percent inhibition of specific binding). As for the experimental part: Lysergic acid diethylamide (LSD) for 2 hours at 25° C. […] Receptor proteins were filtered and washed, the filters were then counted to determine [^3H]LSD specifically bound. […] Biochemical assay results are presented as the percent inhibition of specific binding in Table 6.

Each structure is given as a SMILES string.

T1 sequence (P25021 whole entry): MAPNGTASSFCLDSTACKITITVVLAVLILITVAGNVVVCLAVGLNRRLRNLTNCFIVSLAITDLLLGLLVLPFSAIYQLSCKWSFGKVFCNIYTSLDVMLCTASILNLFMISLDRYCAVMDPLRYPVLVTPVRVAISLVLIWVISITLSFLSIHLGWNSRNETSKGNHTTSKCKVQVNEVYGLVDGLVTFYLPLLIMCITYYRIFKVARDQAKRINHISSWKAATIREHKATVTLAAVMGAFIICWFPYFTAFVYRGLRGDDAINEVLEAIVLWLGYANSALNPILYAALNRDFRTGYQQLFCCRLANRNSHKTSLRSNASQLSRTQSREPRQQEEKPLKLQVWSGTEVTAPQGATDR
T6 sequence (P50406 whole entry): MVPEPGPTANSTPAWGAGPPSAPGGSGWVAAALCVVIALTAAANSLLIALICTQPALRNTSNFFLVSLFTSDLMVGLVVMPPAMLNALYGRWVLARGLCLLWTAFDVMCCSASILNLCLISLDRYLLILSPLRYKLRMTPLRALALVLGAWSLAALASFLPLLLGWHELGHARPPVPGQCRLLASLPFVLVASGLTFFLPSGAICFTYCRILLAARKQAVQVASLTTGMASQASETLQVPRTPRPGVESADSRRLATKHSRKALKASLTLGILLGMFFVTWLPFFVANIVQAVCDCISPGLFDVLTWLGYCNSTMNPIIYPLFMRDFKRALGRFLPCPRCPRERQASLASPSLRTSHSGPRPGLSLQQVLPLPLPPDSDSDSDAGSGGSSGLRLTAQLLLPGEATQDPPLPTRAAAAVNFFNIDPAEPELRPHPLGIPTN

Regarding `COc1ccc2c(c1)c1c(n2CCc2nc(-c3ccccc3)cs2)CCN(C)C1` [Compound C1-6], the inhibition (commonly the drop in the measured response relative to a control, in per cent) at 1 µM in experiment [1] worked out at 21%; in experiment [2] it was 55%; in experiment [3], 29%; in experiment [4], 90%; in experiment [5], 84%; in experiment [6], 84%. For the same compound, the inhibition at 1 µM in experiment [7] turned out to be 57%.
Take `CN1CCc2c(c3cc(F)ccc3n2CCc2nc(-c3ccccc3)cs2)C1` [Compound C1-7]: the inhibition at 1 µM was found to be 55% in experiment [1]; 88% in experiment [2]; 25% in experiment [3]; 91% in experiment [4]; 96% in experiment [5]; 91% in experiment [6]. Besides, the inhibition at 1 µM in experiment [7] turned out to be 90%.
For the compound `CN1CCc2c(c3ccccc3n2CCc2noc(-c3ccccc3)n2)C1` [Compound C4-1], the inhibition at 1 µM turned out to be 47% in experiment [1]; 95% in experiment [2]; 14% in experiment [3]; 91% in experiment [4]; 96% in experiment [5]; 51% in experiment [6]. In addition, in experiment [7], the inhibition at 1 µM came to 88%.
On to `Cc1ccc2c(c1)c1c(n2CCc2noc(-c3ccccc3)n2)CCN(C)C1` [Compound C4-4], for which the inhibition at 1 µM in experiment [1] came to 68%; in experiment [2], 96%; in experiment [3], 46%; in experiment [4] it was 98%; in experiment [5], 100%; in experiment [6] it was 103%. Further, in experiment [7], the inhibition at 1 µM was determined as 96%.
Turning to `CN1CCc2c(c3cc(Cl)ccc3n2CCc2noc(-c3ccccc3)n2)C1` [Compound C4-6], the inhibition at 1 µM was 68% in experiment [1]; 96% in experiment [2]; 36% in experiment [3]; 94% in experiment [4]; 99% in experiment [5]; 105% in experiment [6]. In addition, in experiment [7], the inhibition at 1 µM was found to be 90%.
